Test results taken from US20260200926A1, “TREM2 MODULATORS” (Muna Therapeutics ApS, priority 2022, published 2026).

Legend:
Human TREM2 = target: T1, Human TREM2 (Homo sapiens, UniProt Q9NZC2); assay: Human TREM2 activity: cellular phosphorylation of Syk (AlphaLISA SureFire Ultra p-SYK) in HEK293/DAP12+TREM2 stable cell line; type: cell-based; conditions: for Emax: HEK293, maximal response relative to reference agonist example 1B (remaining examples), read-out: Emax; for EC50: phospho-Syk AlphaLISA signal, HEK293/DAP12+TREM2 cells, concentration giving 50% of maximal response, read-out: EC50
T1 construct: expressed in transfected cells
T1 sequence (Q9NZC2 19-230): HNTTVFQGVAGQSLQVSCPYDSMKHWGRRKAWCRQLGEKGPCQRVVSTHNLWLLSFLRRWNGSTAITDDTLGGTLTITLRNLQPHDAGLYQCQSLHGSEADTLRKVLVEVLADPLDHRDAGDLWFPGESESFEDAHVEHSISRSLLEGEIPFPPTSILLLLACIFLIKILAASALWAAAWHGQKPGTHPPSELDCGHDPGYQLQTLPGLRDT
T1 sequence (O43914 22-113 partner): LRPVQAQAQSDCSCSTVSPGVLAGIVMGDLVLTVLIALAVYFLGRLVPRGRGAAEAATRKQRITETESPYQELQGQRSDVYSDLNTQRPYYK
Method in brief: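 The read-out was p-Syk (Tyr525/526), measured by AlphaLISA in lysates of a stable HEK293/DAP12+TREM2 clone. Cells (10,000/well, plated the day before) received compound for 30 min at 37 °C. Dosing used 8 points in quadruplicate, top 100 μM with 1:6 dilution, 0.5% final DMSO.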

[1] = system: TREM2 regulated genes CXCL10, CCL2, CST7, and TMEM119; assay: Pharmacodynamics in hTREM2 knock-in mice: brain mRNA expression of TREM2 regulated genes by RT-qPCR; type: in vivo, humanized TREM2 knockin (hTREM2 KI) mice, C57BL/6 background; conditions: hTREM2 KI mice, oral gavage 50 mg/kg twice a day with a 10-hour interval, brains after 24 hours, RT-qPCR relative to GAPDH, normalized to vehicle
Method: Humanized TREM2 knockin (hTREM2 KI) mice were used for pharmacodynamics and pharmacokinetics studies. hTREM2 mice were generated by replacement of the mouse TREM2 gene that encodes the full-length protein by the human TREM2 gene in a C57BL/6 mouse strain background. Groups of 10 animals 8-10-week-old hTREM2 mice were treated via oral gavage administration with a TREM2 agonist compound at 50 mg/kg twice a day with a 10-hour interval. After 24 hours, mice were sacrificed and brains were isolated for RNA extraction used for reverse transcription to create complementary DNAs (cDNAs). The relative mRNA expression level of known TREM2 regulated genes were measured by quantitative reverse transcription polymerase chain reaction (RT-qPCR) relative to Glyceraldehyde-3-phosphate dehydrogenase (GAPDH) reference housekeeping gene. Expression of TREM2 regulated genes CXCL10, CCL2, CST7, and TMEM119 were measured as pharmacodynamic biomarkers after TREM2 agonist treatment normalized to vehicle control. These genes are known as microglial activation biomarkers and have previously been reported to respond to TREM2 antibody and small molecule agonist treatment in vivo.
Statistical Analyses. All graphs represent the mean of all samples in each group±SEM.
GraphPad Prism software was used to perform statistical analyses. P<0.05 was considered significant difference between vehicle and TREM2 small molecule treatment determined by T-test.
The relative expression levels for Compound 89A and vehicle were measured.

Row | SMILES | Emax (Human TREM2) [%] | EC50 (Human TREM2) [nM] | brain expression level of CCL2 as compared to vehicle control [1] [fold] | brain expression level of CST7 as compared to vehicle control [1] [fold] | brain expression level of CXCL10 as compared to vehicle control [1] | brain expression level of TMEM119 as compared to vehicle control [1] [fold]
1 | Cc1nc2c(-c3ccc(Cl)cc3F)nc(N3C[C@@H](c4cnn(C)c4)OC(C)(C)C3)nc2c(=O)n1C (single isomer, unassigned) [Example 89A] | 75 to 110 | 10 to 100 | 1.7 | 3.25 | about 2.5 fold | 1.8
2 | Cn1cc(C2CN(c3nc(-c4ccc(F)cc4F)c4nc(C(F)(F)F)n(C)c(=O)c4c3F)CC3(CC3)O2)cn1 (stereo not drawn) [Example 158, 8-(2,4-difluorophenyl)-5-fluoro-3-methyl-6-(5-(1-methyl-1H-pyrazol-4-yl)-4-oxa-7-azaspiro[2.5]octan-7-yl)-2-(trifluoromethyl)pyrido[3,4-d]pyrimidin-4 (3H)-one] | < 75 | 100 to 1000 |  |  |  | 
3 | Cn1c(C(F)(F)F)nc2c(-c3ccc(F)cc3F)nc(C3CCOC(c4cnn(C5CC5)c4)C3)c(F)c2c1=O (stereo not drawn) [Example 167, 6-(2-(1-cyclopropyl-1H-pyrazol-4-yl)tetrahydro-2H-pyran-4-yl)-8-(2,4-difluorophenyl)-5-fluoro-3-methyl-2-(trifluoromethyl) pyrido[3,4-d]pyrimidin-4 (3H)-one] | < 75 | 100 to 1000 |  |  |  | 
4 | Cc1cc([C@H]2C[C@@H](c3cc4c(=O)n(C)c(C)nc4c(-c4ccc(F)cc4F)n3)C[C@@H](C)O2)ccn1 [Example 185] | 75 to 110 | 1 to 10 |  |  |  | 
5 | Cn1cc(C2CN(c3nc(-c4ccc(Cl)cc4F)c4ncn(C)c(=O)c4n3)CCO2)cn1 (stereo not drawn) [Example 187, 8-(4-chloro-2-fluorophenyl)-3-methyl-6-(2-(1-methyl-1H-pyrazol-4-yl)morpholino)pyrimido[5,4-d]pyrimidin-4 (3H)-one] | < 75 | 10 to 100 |  |  |  | 

The next lines start with results.

Row | Emax (Human TREM2) [%] | EC50 (Human TREM2) [nM] | SMILES | brain expression level of CCL2 as compared to vehicle control [1] [fold] | brain expression level of CST7 as compared to vehicle control [1] [fold] | brain expression level of CXCL10 as compared to vehicle control [1] | brain expression level of TMEM119 as compared to vehicle control [1] [fold]
6 | < 75 | 10 to 100 | Cc1nc2c(-c3ccc(Cl)cc3F)nc(N3CCn4nc(C(F)(F)F)nc4C3)nc2c(=O)n1C [Example 188, 8-(4-chloro-2-fluorophenyl)-2,3-dimethyl-6-(2-(trifluoromethyl)-5,6-dihydro-[1,2,4]triazolo[1,5-a]pyrazin-7 (8H)-yl)pyrimido[5,4-d]pyrimidin-4 (3H)-one] |  |  |  | 
7 | < 75 | > 1000 | Cc1nc2c(-c3ccc(Cl)cc3C#N)nc(N3CC(C)OC(c4cnn(C5CC5)c4)C3)cc2c(=O)n1C (stereo not drawn) [Example 198, 5-chloro-2-(6-(2-(1-cyclopropyl-1H-pyrazol-4-yl)-6-methylmorpholino)-2,3-dimethyl-4-oxo-3,4-dihydropyrido[3,4-d]pyrimidin-8-yl)benzonitrile] |  |  |  | 
